Source: patent US12648921B2, “Capric acid and myristic acid compositions for treating conditions” (The Cleveland Clinic Foundation, priority 2016, dated 2026)

Tested on: house dust mite (D. Pteronyssinus) extract (HDME) sensitized and challenged mice
Assay: Airway hyper-reactivity and lung mechanics in house dust mite extract sensitized mice fed purified MCF diets
Type: in vivo
Details: mice fed purified MCF diet, 100 mg/day (4 g/kg body weight); for overall airway constriction (Rrs) induced by increasing dose of methacholine: FIG. 1, from six weeks before HDME sensitization; for ability of the lungs to stretch (Crs, lung compliance) in response to increasing dose of methacholine: FIG. 2; for stiffness of the lungs (Ers) in response to increasing dose of methacholine: FIG. 3; for amount of forcefully exhaled air (FEV) in response to increasing dose of methacholine: FIG. 4
Description: Mice were fed with standard, coconut oil or MCF supplemented diets starting six weeks before allergen sensitization. Isofluorane anesthetized mice received 100 ug house dust mite (D. Pteronyssinus) extract (HDME) (Greer Labs, NC) in […] by nasal aspiration. Five days later mice were challenged daily with 10 ug HDME for 5 days. Three days, after the last HDME exposure, airway hyper-reactivity is measured and lungs collected for analysis. The diets were 15 kcal % fat at a dose of 21 g coconut oil or purified MCF per kg diet. Based on the daily food intake of 4.75 g/day/25 g mouse, each mouse consumes 100 mg of coconut oil or MCF per day. The results of this examples are shown in FIGS. 1-4, which show the results with the mice treated with the various fatty acids, which are present mainly as triglycerides in coconut oil.

SMILES	overall airway constriction (Rrs) induced by increasing dose of methacholine	ability of the lungs to stretch (Crs, lung compliance) in response to increasing dose of methacholine	stiffness of the lungs (Ers) in response to increasing dose of methacholine	amount of forcefully exhaled air (FEV) in response to increasing dose of methacholine
CCCCCCCCCC(=O)O [C10, capric acid]	inhibited	improved	decreased	increased
CCCCCCCCCCCCCC(=O)O [C14, myristic acid]	inhibited	improved	decreased	increased
